For one series, the system named is carboxyl esterase. Nature of the series: conversion of carbamate prodrug into parent drug by incubation in serum, plasma or with carboxyl esterase. It counts as in vitro ADME. The settings on record: plasma or with an enzyme such as carboxyl esterase.
Series [1] in a line: stability in aqueous solutions. It counts as physicochemical.
For series [2] the following is noted: as compared with DC1.
The conditions of series [3]: cited from earlier work.
For series [4] the following is noted: phenyl carbamate prodrug of adozelesin; cited from earlier work.
The test system of series [5] is endogenous alkaline phosphatase. The settings on record: presumably hydrolysis by endogenous alkaline phosphatase; cited from earlier work.
For the next series, the system named is mice. To be noted: single intravenous dose of 12.5 μg/kg; cited from earlier work.
For series [6] the following is noted: vs doxorubicin, methotrexate and vincristine; cited from earlier work.
A further series relates to alkaline phosphatase. The settings on record: incubation with alkaline phosphatase. Here is the method: Cells to be evaluated can be exposed to the compounds for 24 hours and the surviving fractions of cells measured in direct assays by known methods.

The values below come from patent US7906545B2, “Prodrugs of CC-1065 analogs” (priority 2002, dated 2011).

Text for carboxyl esterase: Thus, piperazino carbamate and 4-piperidino-piperidino carbamate protecting groups are enzyme-cleavable by enzymes such as carboxyl esterase, which occurs in serum and plasma. Phosphate protecting groups are cleavable by phosphatase enzymes such as alkaline phosphatase.

`CN1CCN(C(=O)Oc2cc3c(c4ccccc24)[C@H](CCl)CN3C(=O)c2cc3cc(NC(=O)c4cc5cc(NC(=O)CCS)ccc5[nH]4)ccc3[nH]2)CC1` [DC2]: in the series with carboxyl esterase, the “conversion into the parent drug DC1” value was “can be converted into the parent drug DC1”. Besides, the “stability in aqueous solutions” value in series [1] is listed as “extremely stable”. The water solubility entry in series [2] is reported as “enhanced water solubility”.
The corresponding values for `O=C(CCS)Nc1ccc2[nH]c(C(=O)Nc3ccc4[nH]c(C(=O)N5C[C@@H](CCl)c6c5cc(OC(=O)N5CCC(N7CCCCC7)CC5)c5ccccc65)cc4c3)cc2c1` [DC3] are “can be converted into the parent drug DC1”, “extremely stable” and “enhanced water solubility”.
In the case of `Cc1c[nH]c2c1[C@@]13C[C@@H]1CN(C(=O)c1cc4cc(NC(=O)c5cc6ccccc6o5)ccc4[nH]1)C3=CC2=O` [Adozelesin], in [3], the “systemic toxicity in clinical evaluation” value was “high systemic toxicity” and the “therapeutic effects in clinical evaluation” value is on record as “poor therapeutic effects”.
With `CCN(CC)c1ccc2cc(C(=O)Nc3ccc4[nH]c(C(=O)N5C[C@@H](CCl)c6c5cc(OC(=O)Nc5ccccc5)c5[nH]cc(C)c65)cc4c3)oc2c1` [Carzelesin], the lability of prodrug entry in series [4] is “too labile for therapeutic use”. For the same compound, in series [3], the “systemic toxicity in clinical evaluation” value was “high systemic toxicity” and the “therapeutic effects in clinical evaluation” value is “poor therapeutic effects”.
Turning to `COc1cc([C@@H]2c3cc4c(cc3[C@@H](O[C@@H]3O[C@@H]5CO[C@@H](C)O[C@H]5[C@H](O)[C@H]3O)[C@H]3COC(=O)[C@H]23)OCO4)cc(OC)c1OP(=O)(O)O` [etoposide phosphate], the “conversion in vivo into active drug” value in [5] is given as “rapidly converted into active drug”.
Regarding `COc1c(O)c2c(c3cc(C(=O)N4CCc5c4c(O)c(OC)c4[nH]c(C(=O)N6CC7CC78C6=CC(=O)c6[nH]cc(C)c68)cc54)[nH]c13)CCN2C(N)=O` (centres unmarked) [CC-1065], the “delayed toxicity in mice” value in the series on mice is reported as “delayed hepatotoxicity leading to mortality on day 50”. Also, in series [6], the “potency in vitro relative to commonly used anti-cancer drugs” value is “about 1000 fold”.
For the compound `O=C(CCS)Nc1ccc2[nH]c(C(=O)Nc3ccc4[nH]c(C(=O)N5C[C@@H](CCl)c6c5cc(OP(=O)(O)O)c5ccccc65)cc4c3)cc2c1` [DC4], the “stability in aqueous solutions” value in series [1] was “extremely stable”. The “conversion into the parent drug DC1” value with alkaline phosphatase was “converts it into the parent drug DC1”. Also, the water solubility result in series [2] is recorded as “soluble”.
